Experimental data reported in the supplement of paper PMC10307832.

Tests used:
Assay in all cases: relative viability (nuclei count vs DMSO), 5 days (fraction); higher = more cells survive
Masitinib + Pemetrexed = compound: Cc1ccc(NC(=O)c2ccc(CN3CCN(C)CC3)cc2)cc1Nc1nc(-c2cccnc2)cs1 [Masitinib] + Nc1nc2[nH]cc(CCc3ccc(C(=O)N[C@@H](CCC(=O)O)C(=O)O)cc3)c2c(=O)[nH]1 [Pemetrexed] (partner 0.2 µM)
Outline: (§1)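 After 5 days of treatment, lung cancer cells in 1536-well plates were fixed and stained in a single step (final 0.05% Triton X-100, 1% formaldehyde, 1 ug/ml Hoechst) and their nuclei counted on 4× images. Treatment had been applied by pin tool the day after seeding as one drug alone or as a fixed anchor-drug dose with five library-drug doses (not always all listed) in √10 steps. Relative viability is the nuclei count of treated wells divided by that of vehicle wells, and values are medians of duplicate plates.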

Masitinib + Olaparib = compound: Cc1ccc(NC(=O)c2ccc(CN3CCN(C)CC3)cc2)cc1Nc1nc(-c2cccnc2)cs1 [Masitinib] + O=C(c1cc(Cc2n[nH]c(=O)c3ccccc23)ccc1F)N1CCN(C(=O)C2CC2)CC1 [Olaparib] (partner 8 µM)
Outline: as §1

[1] = compound: CC1=CC(=CC=C1)NC2=NC(=CS2)C3=CC=NC=C3 + C[C@]1(O)C[C@@H](c2nc(-c3ccc4ccc(-c5ccccc5)nc4c3)c3c(N)nccn32)C1 [Linsitinib] (partner 1 µM)
Outline: as §1

Masitinib + Crizotinib = compound: Cc1ccc(NC(=O)c2ccc(CN3CCN(C)CC3)cc2)cc1Nc1nc(-c2cccnc2)cs1 [Masitinib] + C[C@@H](Oc1cc(-c2cnn(C3CCNCC3)c2)cnc1N)c1c(Cl)ccc(F)c1Cl [Crizotinib] (partner 1 µM)
Outline: as §1

Row | Cell Line | relative viability (Masitinib + Pemetrexed; first compound 0.01 µM) | relative viability (Masitinib + Pemetrexed; first compound 0.03162 µM) | relative viability (Masitinib + Pemetrexed; first compound 0.1 µM) | relative viability (Masitinib + Pemetrexed; first compound 0.3162 µM) | relative viability (Masitinib + Pemetrexed; first compound 1 µM) | relative viability (Masitinib + Olaparib; first compound 0.01 µM) | relative viability (Masitinib + Olaparib; first compound 0.03162 µM) | relative viability (Masitinib + Olaparib; first compound 0.1 µM) | relative viability (Masitinib + Olaparib; first compound 0.3162 µM) | relative viability (Masitinib + Olaparib; first compound 1 µM) | relative viability ([1]; first compound 0.08 µM) | relative viability ([1]; first compound 0.253 µM) | relative viability ([1]; first compound 0.8 µM) | relative viability ([1]; first compound 8 µM) | relative viability (Masitinib + Crizotinib; first compound 0.03162 µM) | relative viability (Masitinib + Crizotinib; first compound 0.3162 µM) | relative viability (Masitinib + Crizotinib; first compound 1 µM) | relative viability ([1]; first compound 2.53 µM) | relative viability (Masitinib + Crizotinib; first compound 0.01 µM) | relative viability (Masitinib + Crizotinib; first compound 0.1 µM)
1 | A-427 | 0.758 | 0.986 | 0.857 | 1.03 | 0.771 | 0.621 | 0.711 | 0.654 | 0.489 | 0.663 | 1.16 | 1.03 | 1.09 | 1.12 | 0.889 | 0.845 | 0.783 |  |  | 
2 | NCI-H2405 | 0.962 | 1.05 | 0.98 | 1.04 | 0.704 | 0.78 | 0.816 | 0.873 | 0.722 | 0.827 | 0.777 | 0.927 | 0.799 | 0.926 | 0.784 | 0.802 | 0.746 | 0.999 | 0.77 | 0.848
3 | NCI-H1437 | 0.312 | 0.355 | 0.37 | 0.325 | 0.311 | 0.623 | 0.603 | 0.668 | 0.616 | 0.61 | 0.945 | 1.01 | 0.913 | 0.759 | 0.875 | 1.04 | 0.94 | 1 | 0.896 | 0.923
4 | SK-MES-1 | 0.844 | 0.924 | 0.873 | 0.877 | 0.967 | 0.775 | 0.761 | 0.798 | 0.629 | 0.653 | 0.878 | 0.933 | 0.81 | 0.874 | 1.01 | 1.02 | 0.983 | 1.04 | 0.912 | 1.02
5 | RERF-LC-KJ | 0.475 | 0.522 | 0.44 | 0.535 | 0.459 | 0.935 | 0.916 | 0.978 | 0.672 | 0.852 | 0.78 | 0.872 | 0.684 | 0.563 | 0.901 | 0.755 | 0.759 | 0.683 | 0.853 | 0.79
6 | NCI-H23 | 0.795 | 0.607 | 0.699 | 0.641 | 0.626 | 0.294 | 0.256 | 0.295 | 0.242 | 0.264 | 0.491 | 0.607 | 0.639 | 0.583 | 0.423 | 0.463 | 0.465 | 0.584 | 0.524 | 0.597
7 | HOP-62 | 0.286 | 0.325 | 0.323 | 0.462 | 0.404 | 0.312 | 0.819 | 0.451 | 0.289 | 0.418 | 0.984 | 0.706 | 1.03 | 0.725 | 0.88 | 1.08 | 0.898 | 1.16 | 0.659 | 1.09
8 | HARA | 0.217 | 0.324 | 0.24 |  | 0.279 | 0.749 | 0.507 | 1.15 |  | 1.13 | 0.919 | 0.877 | 0.735 | 0.789 | 0.75 | 1.04 | 1.01 | 0.712 | 0.961 | 1.25
